According to ChEMBL document CHEMBL6087412, “Discovery of cloxiquine derivatives as potent HDAC inhibitors for the treatment of melanoma via activating PPARγ” (Eur J Med Chem, 2025):
Calls of active or inactive are those of the source. No cut-off for these calls is given here.

Key:
[1] = system: SK-MEL-5; test: cells; details: Homo sapiens, SK-MEL-5, 72 h
Description: Antiproliferative activity against human SK-MEL-5 cells assessed as inhibition of cell growth incubated for 72 hrs by MTT assay

[2] = system: A-375; test: cells; details: Homo sapiens, A-375, 72 h
Description: Antiproliferative activity against human A-375 cells assessed as inhibition of cell growth incubated for 72 hrs by MTT assay

[3] = in vitro; details: human, MRC5 cells
Description: Antiproliferative activity against human MRC5 cells assessed as inhibition of cell growth incubated for 72 hrs by MTT assay

[4] = system: SK-MEL-5; test: Induction of apoptosis in human SK-MEL-5 cells assessed as viable cells at 5 uM incubated for 48 hrs by Annexin V-APC/7-AAD staining based flow cytometric analysis (reference value: 95.77 %); assay type: functional; details: for viability at 5 µM: Homo sapiens, SK-MEL-5, read-out: Activity
[5] = system: SK-MEL-5; test: Induction of cell cycle arrest in human SK-MEL-5 cells assessed as accumulation of cells at G2/M phase at 5 uM incubated for 48 hrs by propidium iodide staining based flow cytometry (reference value: 8.36 %); assay type: functional
[6] = system: SK-MEL-5; test: Induction of apoptosis in human SK-MEL-5 cells assessed as late apoptotic cells at 5 uM incubated for 48 hrs by Annexin V-APC/7-AAD staining based flow cytometric analysis (reference value: 0.9 %); assay type: functional
[7] = system: SK-MEL-5; test: Induction of cell cycle arrest in human SK-MEL-5 cells assessed as accumulation of cells at G0/G1 phase at 5 uM incubated for 48 hrs by propidium iodide staining based flow cytometry (reference value: 66.27 %); assay type: functional
[8] = system: SK-MEL-5; test: Induction of apoptosis in human SK-MEL-5 cells assessed as early apoptotic cells at 5 uM incubated for 48 hrs by Annexin V-APC/7-AAD staining based flow cytometric analysis (reference value: 2.29 %); assay type: functional
[9] = system: SK-MEL-5; test: Induction of apoptosis in human SK-MEL-5 cells assessed as necrotic cells at 5 uM incubated for 48 hrs by Annexin V-APC/7-AAD staining based flow cytometric analysis (reference value: 1.05 %); assay type: functional
[10] = system: SK-MEL-5; test: Induction of cell cycle arrest in human SK-MEL-5 cells assessed as accumulation of cells at S phase at 5 uM incubated for 48 hrs by propidium iodide staining based flow cytometry (reference value: 25.36 %); assay type: functional
[11] = system: SK-MEL-5; test: Antitumor activity against human SK-MEL-5 cells xenografted with BALB/c mouse assessed as tumor growth inhibition at 30 mg/kg,ip administrated for 21 consecutive days; assay type: functional; details: read-out: TGI
[12] = target: Histone deacetylase 4 (Homo sapiens, UniProt P56524); test: Inhibition of HDAC4 (unknown origin) using Ac-Leu-Gly-Lys(Tfa)-AMC as substrate by spectramax microplate reader analysis
[13] = system: SK-MEL-5; test: Inhibition of cell migration in human SK-MEL-5 cells incubated for 24 hrs by scratch assay; assay type: functional, cell-based
[14] = system: SK-MEL-5; test: Induction of cell cycle arrest in human SK-MEL-5 cells assessed as accumulation of cells at G2/M phase at 0.2 uM incubated for 48 hrs by propidium iodide staining based flow cytometry (reference value: 8.36 %); assay type: functional
[15] = system: SK-MEL-5; test: Induction of apoptosis in human SK-MEL-5 cells assessed as viable cells at 1 uM incubated for 48 hrs by Annexin V-APC/7-AAD staining based flow cytometric analysis (reference value: 95.77 %); assay type: functional; details: read-out: Activity
[16] = system: SK-MEL-5; test: Induction of apoptosis in human SK-MEL-5 cells assessed as viable cells at 0.2 uM incubated for 48 hrs by Annexin V-APC/7-AAD staining based flow cytometric analysis (reference value: 95.77 %); assay type: functional; details: read-out: Activity
[17] = system: SK-MEL-5; test: Inhibition of glycolysis in human SK-MEL-5 cells assessed as reduction in lactate production at 2 uM incubated for 48 hrs in presence of GW9662 by chekineTM micro lactate Assay; assay type: functional, cell-based
[18] = system: SK-MEL-5; test: Inhibition of cell invasion in human SK-MEL-5 cells at 0.2 to 5 uM incubated for 48 hrs by transwell assay; assay type: functional, cell-based; details: dose 0.2-5 µM
[19] = system: SK-MEL-5; test: Induction of cell cycle arrest in human SK-MEL-5 cells assessed as accumulation of cells at G2/M phase at 1 uM incubated for 48 hrs by propidium iodide staining based flow cytometry (reference value: 8.36 %); assay type: functional
[20] = system: SK-MEL-5; test: Induction of cell cycle arrest in human SK-MEL-5 cells assessed as accumulation of cells at G0/G1 phase at 0.2 uM incubated for 48 hrs by propidium iodide staining based flow cytometry (reference value: 66.27 %); assay type: functional
[21] = system: SK-MEL-5; test: Induction of apoptosis in human SK-MEL-5 cells assessed as late apoptotic cells at 1 uM incubated for 48 hrs by Annexin V-APC/7-AAD staining based flow cytometric analysis (reference value: 0.9 %); assay type: functional
[22] = system: SK-MEL-5; test: Induction of cell cycle arrest in human SK-MEL-5 cells assessed as accumulation of cells at S phase at 1 uM incubated for 48 hrs by propidium iodide staining based flow cytometry (reference value: 25.36 %); assay type: functional
[23] = system: SK-MEL-5; test: Induction of cell cycle arrest in human SK-MEL-5 cells assessed as accumulation of cells at S phase at 0.2 uM incubated for 48 hrs by propidium iodide staining based flow cytometry (reference value: 25.36 %); assay type: functional
[24] = system: SK-MEL-5; test: Induction of apoptosis in human SK-MEL-5 cells assessed as necrotic cells at 0.2 uM incubated for 48 hrs by Annexin V-APC/7-AAD staining based flow cytometric analysis (reference value: 1.05 %); assay type: functional
[25] = Toxicity in BALB/c mouse xenografted with human SK-MEL-5 cells assessed as body weight loss at 30 mg/kg,ip administrated for 21 consecutive days; assay type: organism-based; details: in vivo
[26] = system: SK-MEL-5; test: Induction of apoptosis in human SK-MEL-5 cells assessed as early apoptotic cells at 1 uM incubated for 48 hrs by Annexin V-APC/7-AAD staining based flow cytometric analysis (reference value: 2.29 %); assay type: functional
[27] = system: SK-MEL-5; test: Induction of cell cycle arrest in human SK-MEL-5 cells assessed as accumulation of cells at G0/G1 phase at 1 uM incubated for 48 hrs by propidium iodide staining based flow cytometry (reference value: 66.27 %); assay type: functional
[28] = system: SK-MEL-5; test: Induction of apoptosis in human SK-MEL-5 cells assessed as late apoptotic cells at 0.2 uM incubated for 48 hrs by Annexin V-APC/7-AAD staining based flow cytometric analysis (reference value: 0.9 %); assay type: functional
[29] = system: SK-MEL-5; test: Antiproliferative activity against human SK-MEL-5 cells assessed as inhibition of cell growth incubated for 72 hrs in presence of GW9662 by MTT assay; assay type: functional, cell-based
[30] = system: SK-MEL-5; test: Antiproliferative activity against human SK-MEL-5 cells assessed as upregulation of PPARgamma expression incubated for 48 hrs by Western blotting analysis; assay type: functional, cell-based
[31] = system: SK-MEL-5; test: Induction of apoptosis in human SK-MEL-5 cells assessed as early apoptotic cells at 0.2 uM incubated for 48 hrs by Annexin V-APC/7-AAD staining based flow cytometric analysis (reference value: 2.29 %); assay type: functional
[32] = system: SK-MEL-5; test: Induction of apoptosis in human SK-MEL-5 cells assessed as necrotic cells at 1 uM incubated for 48 hrs by Annexin V-APC/7-AAD staining based flow cytometric analysis (reference value: 1.05 %); assay type: functional

Histone deacetylase 4, sequence (P56524 whole entry): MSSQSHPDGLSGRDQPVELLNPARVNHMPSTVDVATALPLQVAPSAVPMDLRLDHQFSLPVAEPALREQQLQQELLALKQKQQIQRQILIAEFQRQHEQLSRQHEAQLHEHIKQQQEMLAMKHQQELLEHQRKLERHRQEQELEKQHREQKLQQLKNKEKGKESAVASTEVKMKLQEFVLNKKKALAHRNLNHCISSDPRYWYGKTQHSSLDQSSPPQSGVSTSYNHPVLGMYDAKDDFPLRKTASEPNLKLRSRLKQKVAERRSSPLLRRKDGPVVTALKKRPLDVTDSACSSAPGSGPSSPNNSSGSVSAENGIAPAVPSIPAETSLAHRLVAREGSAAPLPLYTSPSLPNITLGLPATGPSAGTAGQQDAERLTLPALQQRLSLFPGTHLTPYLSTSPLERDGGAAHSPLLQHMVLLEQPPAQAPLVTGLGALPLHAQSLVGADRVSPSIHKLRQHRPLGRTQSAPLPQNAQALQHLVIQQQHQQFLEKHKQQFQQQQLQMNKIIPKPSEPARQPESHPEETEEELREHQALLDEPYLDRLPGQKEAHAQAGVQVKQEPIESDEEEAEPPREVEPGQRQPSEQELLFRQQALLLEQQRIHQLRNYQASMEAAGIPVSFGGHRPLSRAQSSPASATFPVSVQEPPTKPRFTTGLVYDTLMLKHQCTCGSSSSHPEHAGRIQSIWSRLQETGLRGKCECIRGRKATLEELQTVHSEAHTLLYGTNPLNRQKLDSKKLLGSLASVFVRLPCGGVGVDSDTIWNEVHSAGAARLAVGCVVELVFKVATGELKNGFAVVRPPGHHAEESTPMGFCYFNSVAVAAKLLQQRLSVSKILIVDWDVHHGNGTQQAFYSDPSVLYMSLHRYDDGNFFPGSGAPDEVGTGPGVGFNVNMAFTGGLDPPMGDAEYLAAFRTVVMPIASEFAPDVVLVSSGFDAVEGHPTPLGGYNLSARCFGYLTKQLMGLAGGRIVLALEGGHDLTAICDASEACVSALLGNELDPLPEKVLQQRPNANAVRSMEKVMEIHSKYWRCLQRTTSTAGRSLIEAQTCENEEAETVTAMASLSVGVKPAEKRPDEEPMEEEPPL

O=C(NO)c1ccc(CCOc2ccc(Cl)c3cccnc23)cc1
IC50 [1]: 10.8 µM | IC50 [2]: 11.9 µM | IC50 at 72 h [3]: 23.3 µM

O=C(NO)c1cccc(COc2ccc(Cl)c3cccnc23)c1
IC50 [1]: 24.2 µM | IC50 [2]: 29.5 µM | IC50 at 72 h [3]: > 50 µM

O=C(CCc1ccc(COc2ccc(Cl)c3cccnc23)cc1)NO
IC50 [1]: 17.4 µM | IC50 [2]: 22.7 µM | IC50 at 72 h [3]: > 50 µM

O=C(CCCCCCC(=O)Nc1ccccc1)NO [VORINOSTAT]
Activity [4]: 57.12% | Activity [5]: 19.87% | Activity [6]: 7.99% | IC50 [1]: 2.16 µM | Activity [7]: 55.91% | Activity [8]: 32.5% | Activity [9]: 2.39% | Activity [10]: 24.22%

O=C(CCCCCOc1cccc2cccnc12)NO
IC50 [1]: 12.7 µM | IC50 [2]: 13.8 µM | IC50 at 72 h [3]: 28.1 µM

O=C(CCCCCCOc1ccc(Cl)c2cccnc12)NO
IC50 [1]: 3.47 µM | IC50 [2]: 3.68 µM | IC50 at 72 h [3]: 8.07 µM

Oc1ccc(Cl)c2cccnc12 [CLOXYQUIN]
viability at 5 µM [4]: 85.1% | Activity [5]: 13.48% | inhibition in vivo at 30 mg/kg [11]: 24.3% | Activity [6]: 4.88% | IC50 [1]: 5 µM | Activity [7]: 58.85% | Activity [8]: 6.96% | IC50 [2]: 6.08 µM | Activity [9]: 3.08% | IC50 at 72 h [3]: 20.4 µM | Activity [10]: 27.67%

O=C(CCCCOc1ccc(Cl)c2cccnc12)NO
IC50 [1]: 21.6 µM | IC50 [2]: 22.2 µM | IC50 at 72 h [3]: > 50 µM

O=C(/C=C/c1ccc(COc2ccc(Cl)c3cccnc23)cc1)NO
IC50 [1]: 3.7 µM | IC50 [2]: 3.45 µM | IC50 at 72 h [3]: 6.94 µM

O=C(/C=C/c1ccc(COc2cccc3cccnc23)cc1)NO
IC50 [1]: 3.67 µM | IC50 [2]: 3.72 µM | IC50 at 72 h [3]: 7.34 µM

O=C(NO)c1ccccc1COc1cccc2cccnc12
IC50 [1]: 46.6 µM | IC50 [2]: > 50 µM | IC50 at 72 h [3]: > 50 µM

O=C(CCCOc1cccc2cccnc12)NO
IC50 [1]: 29.8 µM | IC50 [2]: 32.8 µM | IC50 at 72 h [3]: > 50 µM

O=C(NO)c1ccc(COc2cccc3cccnc23)cc1
IC50 [1]: 15 µM | IC50 [2]: 15.1 µM | IC50 at 72 h [3]: 18.4 µM

O=C(NO)c1ccc(COc2ccc(Cl)c3cccnc23)cc1
IC50 [1]: > 50 µM | IC50 [2]: > 50 µM | IC50 at 72 h [3]: > 50 µM

O=C(CCCOc1ccc(Cl)c2cccnc12)NO
IC50 [1]: 6.27 µM | IC50 [2]: 6.57 µM | IC50 at 72 h [3]: 19.5 µM

O=C(NO)c1ccccc1COc1ccc(Cl)c2cccnc12
IC50 [1]: 8.53 µM | IC50 [2]: 9.78 µM | IC50 at 72 h [3]: 21.3 µM

O=C(NO)c1cccc(COc2cccc3cccnc23)c1
IC50 [1]: 41.5 µM | IC50 [2]: > 50 µM | IC50 at 72 h [3]: > 50 µM

O=C(CCCCCOc1ccc(Cl)c2cccnc12)NO
IC50 [1]: 13.7 µM | IC50 [2]: 15 µM | IC50 at 72 h [3]: 42.1 µM

O=C(CCCCOc1cccc2cccnc12)NO
IC50 [1]: > 50 µM | IC50 [2]: > 50 µM | IC50 at 72 h [3]: > 50 µM

O=C(CCCCCCOc1cccc2cccnc12)NO
IC50 [12]: 19.3 µM | inhibition [13]: Dose-dependent-effect | Activity [14]: 11.27% | viability at 1 µM [15]: 77.8% | viability at 0.2 µM [16]: 92.7% | viability at 5 µM [4]: 49.9% | Activity [5]: 22.01% | inhibition [17]: inactive | inhibition in vivo at 30 mg/kg [11]: 50.2% | inhibition [18]: Active | Activity [6]: 12.52% | IC50 [1]: 0.93 µM | Activity [7]: 50.23% | Activity [19]: 16% | Activity [20]: 64.96% | Activity [21]: 8.03% | Activity [8]: 35.15% | Activity [22]: 24.55% | Activity [23]: 23.77% | Activity [24]: 0.85% | Activity [25]: Non-toxic | Activity [26]: 9.75% | IC50 [2]: 1.2 µM | Activity [27]: 59.45% | Activity [28]: 2.81% | Activity [29]: inactive | Activity [30]: Dose-dependent-effect | Activity [9]: 2.39% | Activity [31]: 3.68% | IC50 at 72 h [3]: 3.64 µM | Activity [10]: 27.75% | Activity [32]: 4.41%

O=C(NO)c1ccc(CCOc2cccc3cccnc23)cc1
IC50 [1]: 13.7 µM | IC50 [2]: 13.3 µM | IC50 at 72 h [3]: 29 µM

O=C(Cc1ccc(COc2cccc3cccnc23)cc1)NO
IC50 [1]: > 50 µM | IC50 [2]: > 50 µM | IC50 at 72 h [3]: > 50 µM
